# Measurements: PMC2579677 (British Journal of Cancer, 2008)
# Several values for one entry are separate records, joined by “and”; a condition that tells them apart may be missing. Equal values may be shown once. Read-outs that look alike come from different tables or passages of the source.
# Key:
# [1] = system: bFGF-stimulated angiogenesis in Matrigel plugs; set-up: method as in Chander et al, 2007; settings: ref Chander et al, 2007, cited from earlier work
# [2] = cited from earlier work
# [3] = system: MDA-MB-231 xenograft tumours; assay: MDA-MB-231 xenograft tumour growth inhibition; settings: 21 days
# [4] = system: MCF-7wt xenograft tumours; assay: MCF-7wt xenograft tumour growth inhibition; assay type: in vivo, MF-1 nu/nu mice; settings: 28 days, compared with vehicle-only
# [5] = system: MCF-7dox40 xenograft tumours; assay: Paclitaxel-resistant MCF-7dox40 xenograft tumour growth inhibition; assay type: in vivo, MF-1 nu/nu mice; settings: 28 days
# HUVECs = assay: In vitro angiogenesis kit: VEGF-stimulated vessel formation in HUVEC/fibroblast coculture; assay type: cell-based, human; settings: VEGF 2 ng ml^−1 stimulated, day 11
# Method: The effects of the compounds on in vitro vessel formation were assessed using an angiogenesis kit (TCS Cellworks, Claydon, UK). For this assay, HUVECs (obtained from TCS Cellworks) were cultured in a 24-well plate within a matrix of human diploid fibroblasts of dermal origin in an optimised medium (TCS Cellworks) supplemented with 2 ng ml^−1 vascular endothelial growth factor (VEGF). The cocultured cells were incubated throughout the experiment at 37°C under 5% CO2 in a humidified incubator. On day 1, the culture medium was removed and replaced with medium containing the compounds under investigation. The vehicle used for the dilution of compound was tetrahydrofuran (THF). The final concentration of THF in the medium was 0.001 (100 nM dose) to 0.00025% (25 nM dose). On days 4, 7 and 9, the medium was replaced with fresh medium containing the compounds. Each compound was tested in triplicate. On day 11, the cells were washed (phosphate-buffered saline) and 70% ethanol (1 ml) was added to each well for 30 min to fix the cells. After fixation, the cells were washed with blocking buffer (1 ml, phosphate-buffered saline+1% bovine serum albumin) and stained for CD31 according to the manufacturer's instructions (TCS Cellworks).
# The extent of vessel formation was then quantified using a variation of an earlier described technique ([Newman et al, 2004]). Briefly, using a high-resolution transmissive scanner (ScanMaker 9800, Microtek, Willich, Germany), each well was scanned and saved as a tagged image format (TIF) file in Photoshop (Adobe, San Jose, CA, USA). The image was then converted to a black and white image using the photocopy filter in Photoshop ( × 2, 10 detail and 25 darkness) and saved as an uncompressed TIF file. The files were transferred to the AngioSys software (TCS Cellworks), all background and non-tubule-like structures were removed using erode ( × 1) and clean (100 pixels) functions, and the number of pixels representing vessels was counted. This technique was validated (data not shown) against the quantification techniques as described earlier ([Newman et al, 2004]).
# [6] = system: bFGF-stimulated angiogenesis in Matrigel plugs; assay: In vivo angiogenesis assay (bFGF-supplemented Matrigel plug, FITC-dextran); set-up: species or system C57BL/6J mice; settings: for reduction of level of angiogenesis: 10 mg kg^−1 orally daily for four days, compared with bFGF-only
# Method: The antiangiogenic potential of STX243 was assessed using a modified Matrigel plug assay as described earlier ([Passaniti et al, 1992]; [Prewett et al, 1999]; [Chander et al, 2007]). The female C57BL/6J mice used in this study were obtained from Harlan (Bicester). The mice were anaesthetised, placed on a heated pad (37°C) and 0.5 ml of ice-cold Matrigel supplemented with 500 ng of basic fibroblast growth factor (bFGF) was injected subcutaneously into the flanks of each mouse. Control mice received Matrigel without bFGF. The mice were subsequently weighed before returning the mice to their isolator. After 24 h of Matrigel injection, the mice were placed into the following treatment groups: control, bFGF-only, bFGF plus STX140 (10 mg kg^−1, orally) and bFGF plus STX243 (10, 20 or 40 mg kg^−1, orally). Control and bFGF-only animals were dosed orally with vehicle (10% THF, 90% PG). The animals were dosed every day for four days with five animals per treatment group. Quantification of the blood vessels within the Matrigel plugs was facilitated through the intravenous injection of 100 μl of 0.25 mg ml^−1 FITC-dextran (250 000 molecular weight) seven days after the Matrigel injection. FITC-dextran injection allows for visualisation of the blood vessels that has been recently formed in the matrigel plugs. The animals were killed 20 min after the injection of the FITC-dextran. The mice were subsequently weighed and the Matrigel plugs were removed. The Matrigel plugs were photographed and subsequently dissolved in 1 ml Dispase reagent for 16 h at 37°C. The resulting mixture was centrifuged at 15 700 g (20°C) for 30 s. The fluorescence of the supernatant was measured using a FLUOstar OPTIMA fluorimeter (BMG Labtech Ltd., Aylesbury, Bucks, UK). The excitation and emission wavelengths used were 480 and 520 nm, respectively. The fluorescence of the samples was quantitated using a standard curve of FITC-dextran (0.4–25 μg ml^−1).
# [7] = Pharmacokinetics of STX243 in plasma (HPLC); assay type: in vivo, female Wistar rats; settings: for clearance / MRT / Vd / half-life / Cmax: female, Wistar; for clearance / MRT / Vd / half-life: rat, plasma; for clearance: read-out: Cl (total body clearance) (converted); for MRT: read-out: MRT (mean residence time); for Vd: read-out: VD (volume of distribution); for half-life: read-out: t1/2β (elimination half-life) (converted)
# [8] = set-up: method as in Foster et al, 2008; settings: single oral administration; ref Foster et al, 2008; cited from earlier work
# range of cell lines = settings: 2003, 2005, cited from earlier work; for difference in antiproliferative activity relative to 2-MeOE2: some investigations, ref Day et al, Wood et al, 2004, Leese et al
# [9] = system: MCF-7dox40 xenograft tumours; set-up: method as in Newman et al, 2008; settings: ref Newman et al, 2008; cited from earlier work
# [10] = system: human umbilical vein endothelial cell (HUVEC); set-up: method as in Newman et al, 2004; settings: ref Newman et al, 2004; cited from earlier work
# [11] = 40 mg kg^−1 orally daily, compared with vehicle-only
smiles,measurement,setting,value
"COc1cc2c(cc1O)CC[C@@H]1[C@@H]2CC[C@]2(C)[C@@H](O)CC[C@@H]12 [2-MeOE2, 2-methoxyoestradiol, reference compound]",angiogenesis inhibition in Matrigel plugs,[1]; 10 mg kg^−1 dose,no significant inhibition
same,angiogenesis inhibition in Matrigel plugs,[1]; 50 mg kg^−1 orally,Angiogenesis inhibition was only observed
same,plasma concentration 1 h after intravenous dosing,"[2]; 10 mg kg^−1 intravenous, HPLC, ref Ireson et al, 2004",below the LOD
same,tumour growth inhibition,[3]; [11],No significant tumour inhibition
same,tumour growth inhibition,[3]; 75 mg kg^−1 orally daily,No significant tumour inhibition
"CC(=O)O[C@H]1C(=O)[C@@]2(C)[C@H]([C@H](OC(=O)c3ccccc3)[C@]3(O)C[C@H](OC(=O)[C@H](O)[C@@H](NC(=O)c4ccccc4)c4ccccc4)C(C)=C1C3(C)C)[C@]1(OC(C)=O)CO[C@@H]1C[C@@H]2O [paclitaxel, reference compound]",tumour growth inhibition,[4]; 15 mg kg^−1 intravenous weekly,87±6%
same,tumour growth inhibition,[5]; 15 mg kg^−1 intravenous weekly,only STX243 was capable of significantly inhibiting the growth
"CCc1cc2c(cc1OS(N)(=O)=O)CCC1C2CC[C@@]2(C)C1CC[C@@H]2OS(N)(=O)=O (stereo partly drawn) [STX243, 2-ethyloestradiol-3,17-O,O-bis-sulphamate]",vessel formation,HUVECs; 25 nM,only a small inhibition
same,vessel formation,HUVECs; 50 nM,significant inhibition of vessel formation
same,vessel (tubule) formation,HUVECs; 100 nM,completely blocked all tubule formation
same,tumour growth inhibition,[4]; 40 mg kg^−1 orally daily,87±5%
same,tumour growth inhibition,[5]; [11],74±4%
same,reduction of level of angiogenesis,[6],50% and 50±6%
same,growth of new blood vessels in Matrigel plugs,"[6]; all doses investigated (10, 20 or 40 mg kg^−1 orally), P<0.001 vs bFGF-only",significantly inhibited
same,AUC,[7]; Intravenous 10 mg kg^−1,42 hμg ml^−1
same,AUMC,[7]; Intravenous 10 mg kg^−1,267 h^2μg ml^−1
same,AUC,[7]; Intravenous 40 mg kg^−1,126 hμg ml^−1
same,AUMC,[7]; Intravenous 40 mg kg^−1,558 h^2μg ml^−1
same,AUC,[7]; Oral 10 mg kg^−1,13 hμg ml^−1
same,AUMC,[7]; Oral 10 mg kg^−1,219 h^2μg ml^−1
same,Bioavailability (% F),[7]; Oral 10 mg kg^−1,31 % F and 30.7 % F
same,time of highest plasma concentration,[7]; Oral 10 mg kg^−1,4 h
same,AUC,[7]; Oral 40 mg kg^−1,23 hμg ml^−1
same,AUMC,[7]; Oral 40 mg kg^−1,157 h^2μg ml^−1
same,Bioavailability (% F),[7]; Oral 40 mg kg^−1,18 % F
same,time of highest plasma concentration,[7]; Oral 40 mg kg^−1,8 h
same,clearance,[7]; Intravenous 10 mg kg^−1,3.92 mL/min/kg
same,MRT,[7]; Intravenous 10 mg kg^−1,6.28 h
same,Vd,[7]; Intravenous 10 mg kg^−1,1.48 L/kg
same,half-life,[7]; Intravenous 10 mg kg^−1,4.78 h
same,clearance,[7]; Intravenous 40 mg kg^−1,5.3 mL/min/kg
same,MRT,[7]; Intravenous 40 mg kg^−1,4.44 h
same,Vd,[7]; Intravenous 40 mg kg^−1,1.41 L/kg
same,half-life,[7]; Intravenous 40 mg kg^−1,3.18 h
same,MRT,[7]; Oral 10 mg kg^−1,16.8 h
same,half-life,[7]; Oral 10 mg kg^−1,11.4 h
same,MRT,[7]; Oral 40 mg kg^−1,6.93 h
same,half-life,[7]; Oral 40 mg kg^−1,1.88 h
same,Cmax,"[7]; Intravenous 10 mg kg^−1, rat plasma",13100 ng/mL
same,Cmax,"[7]; Intravenous 40 mg kg^−1, rat plasma",44800 ng/mL
same,Cmax,"[7]; Oral 10 mg kg^−1, rat plasma",640 ng/mL
same,Cmax,"[7]; Oral 40 mg kg^−1, rat plasma",1760 ng/mL
same,metabolism (to putative metabolite STX1813) in plasma,"[7]; intravenous or oral, 10 or 40 mg kg^−1, HPLC",no significant metabolism
same,maximum-tolerated dose,[8],300 mg/kg
same,potency at inhibiting cell proliferation relative to STX140,"range of cell lines; range of cell lines, ref Suzuki et al, Raobaikady et al",equipotent to STX140
same,difference in antiproliferative activity relative to 2-MeOE2,range of cell lines,10 fold
same,tumour growth inhibition,[3]; [11],72% and 72±13%
"COc1cc2c(cc1OS(N)(=O)=O)CCC1C2CC[C@@]2(C)C1CC[C@@H]2OS(N)(=O)=O (stereo partly drawn) [STX140, 2-MeOE2-3,17-O,O-bis-sulphamate]",reduction of level of angiogenesis,[6],72% and 72±5%
same,inhibition of growth of MCF-7dox40 tumours,[9],capable of inhibiting the growth of MCF-7dox40 tumours
same,maximum-tolerated dose,[8],150 mg/kg
same,effectiveness at inhibiting HUVEC proliferation relative to 2-MeOE2,[10],60 fold
same,difference in antiproliferative activity relative to 2-MeOE2,range of cell lines,10 fold
same,maximum concentration in plasma,"[2]; rat, in vivo, iv",6.6 µg/mL
same,oral bioavailability,"[2]; rat, in vivo, po, 10 mg/kg",85%
same,maximum concentration in plasma,"[2]; rat, in vivo, po",3.9 µg/mL
same,time of peak plasma concentration,"[2]; rat, in vivo, po",3 h
same,tumour growth inhibition,"[3]; 20 mg kg^−1 orally daily, compared with vehicle-only",63% and 63±7%
